Assay results reported in patent US20180273528A1 (LES LABORATOIRES SERVIER, priority 2015, published 2018).

Assays:
[1] = target: T1, His-TEV-DYRK1A Kinase domain (aa127-485) (Homo sapiens, UniProt Q13627); test: Kinase ADP assay (ADP Hunter), DYRK1A kinase domain; assay type: biochemical; conditions: 20 μM ATP
T1 construct: His-TEV-DYRK1A Kinase domain (aa127-485); His tag (N); TEV protease cleavage site (N)
Summary of the method: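 Readout is ADP Hunter fluorescence at 590 nm, developed 20 min at 30 °C after the kinase step. That step ran 10 min at 30 °C in Hepes pH 7.4 (10 mM MgCl2, 1 mM EGTA, 0.02% Tween20) containing 20 μM ATP, 40 μM peptide and 20 nM enzyme plus compound.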

DYRK1A [2] = target: T2, DYRK1A (Homo sapiens, UniProt Q13627); test: Kinase TR-FRET assay, DYRK1A; assay type: biochemical; design: full-length, wild-type human DYRK1A (NM_001396) with an HA tag; expressed in transfected cells; host or cells: human U2-OS osteosarcoma cells, transient transfection of a pcDNA3.1 plasmid; conditions: full-length human kinase, 10 μM ATP
Experimental: Inhibition of the enzymatic activity of human kinases was evaluated in a Time-Resolved Fluorescence Resonance Energy Transfer (TR-FRET) assay in 384-well reaction plates. […] Test compounds of the invention were added in reaction buffer at a range of concentrations from 0.1 nM to 30 μM. Following addition of EDTA (Sigma E7889, 10 mM) to stop the reaction, Europium-labelled mouse monoclonal antibody recognizing phospho-Thr232 in MBP (Perkin Elmer TRF0201, 1 nM) was added.

DYRK1A [3] = target: T2, DYRK1A; test: Cellular DYRK1 autophosphorylation assay in U2-OS cells; assay type: cell-based; design: full-length, wild-type human DYRK1A (NM_001396) with an HA tag; expressed in transfected cells; host or cells: human U2-OS osteosarcoma cells, transient transfection of a pcDNA3.1 plasmid; conditions: U2-OS cells transfected with HA-tagged human DYRK1A, 5 hours exposure; read-out: IC50 (μM) P-Ser520-Dyrk1A -Cell assay
Experimental: On day 2, cells were exposed to a range of concentrations of the test compounds of the invention for 5 hours. […] The relative levels of phospho-Ser520-DYRK1A were assayed using either western blotting or the Mesoscale ELISA platform. For analysis by western blot, lysates were diluted into Laemmli sample buffer (Bio-Rad) containing 5% v/v β-mercaptoethanol, heated for 5 min at 95° C., and resolved on Tris-glycine gels or NuPage Bis-Tris gels (Novex; Invitrogen). Biotinylated molecular weight standards (Cell Signaling Technology) were included in all gels. Proteins were transferred to nitrocellulose membranes (Hybond, ECL; Amersham), which were blocked in Tris-buffered saline/0.1% tween 20 (TBST) containing 5% milk, and probed at 4° C. overnight with anti-phospho-Ser520-DYRK1A antibody (Eurogentec SE6974-75; 0.23 μg/ml in 5% BSA) or anti DYRK1A antibody (Abnova H00001859; 0.5 μg/ml in 5% milk). Peroxidase-conjugated secondary antibodies were diluted into 5% milk and applied to membranes for 1 h at 20° C. Chemiluminescence detection was performed using the ECL plus western blotting detection kit (Amersham) and was recorded on ECL plus hyperfilm (Amersham). Blots were scanned using the Bio-Rad GS-800 calibrated densitometer and quantitative analysis of western blots was performed using TotalLab software (Amersham). IC50 values for inhibition of phospho-Ser520-DYRK1A were calculated from dose-response curves plotting the ratio between phospho-Ser520-DYRK1A and total DYRK1A signals at each concentration. […] Anti-phospho-Ser520-DYRK1A antibody (Eurogentec SE6974-75; […]) and anti DYRK1A antibody (Abnova H00001859; 3 μg/ml) was then added for 1 hour at RT, followed by addition of Sulfa-TAG anti-rabbit detection antibody (ref MSD R32AB; 1 μg/ml) and Sulfa-TAG anti-mouse detection antibody (ref MSD R32-AC-1; 1 μg/ml). After a further 1 hour, Read Buffer was added and plates were read on the Sector Imager 2400 (Mesoscale). IC50 values for inhibition of phospho-Ser520-DYRK1A were calculated from dose-response curves.

| SMILES | IC50 [1] [µM] | IC50 (DYRK1A [2]) [µM] | IC50 (DYRK1A [3]) [µM] |
| --- | --- | --- | --- |
| Cc1nc2ccc(-c3cc(N)nc(N)c3)nc2n1[C@H]1C[C@H]2C[C@@H]([C@@H]1C)C2(C)C [Example 16, 4-[2-methyl-3-[(1S,2S,3S,5R)-2,6,6-trimethylbicyclo[3.1.1]hept-3-yl]-3H-imidazo[4,5-b]pyridin-5-yl]pyridine-2,6-diamine] | 0.367 | 0.153 | – |
| Cc1nc2ccc(-c3cc(N)nc(N)c3)nc2n1CC12CC3CC(CC(C3)C1)C2 [Example 22, 4-{2-methyl-3-tricyclo[3.3.1.1^3,7]dec-1-ylmethyl-3H-imidazo[4,5-b]pyridin-5-yl}pyridine-2,6-diamine] | 0.364 | 0.069 | – |
| Cc1cc([C@@H](C)n2c(C)nc3ccc(-c4cc(N)nc(N)c4)nc32)ccn1 [Example 32, 4-{2-methyl-3-[(I R)-1-(2-methylpyridin-4-yl)ethyl]-3H-imidazo[4,5-b]pyridin-5-yl}pyridine-2,6-diamine] | 0.037 | 0.095 | – |
| CCC(C)n1c(C)nc2ccc(-c3cc(N)nc(N)c3)nc21 (stereo not shown) [Example 33, 4-[3-(butan-2-yl)-2-methyl-3H-imidazo[4,5-b]pyridin-5-yl]pyridine-2,6-diamine] | 0.018 | 0.045 | – |
| CCOC(=O)N1CCC(n2c(C)nc3ccc(-c4cc(N)nc(N)c4)nc32)CC1 [Example 35] | 0.008 | 0.012 | – |
| Cc1nc2ccc(-c3cc(N)nc(N)c3)nc2n1C1CCN(C(=O)C(C)C)CC1 [Example 38, 1-{4-[5-(2,6-diaminopyridin-4-yl)-2-methyl-3H-imidazo[4,5-b]pyridin-3-yl]piperidin-1-yl}-2-methylpropan-1-one] | 0.008 | 0.028 | – |
| Cc1nc2ccc(-c3cc(N)nc(N)c3)nc2n1C1CC2CCC1C2 (stereo not shown) [Example 155, 4-[3-(bicyclo[2.2.1]hept-2-yl)-2-methyl-3H-imidazo[4,5-b]pyridin-5-yl]pyridine-2,6-diamine] | 0.005 | 0.012 | – |
| Cn1c(C(F)(F)F)nc2ccc(-c3cc(N)nc(N)c3)nc21 [Example 229, 4-[3-methyl-2-(trifluoromethyl)-3H-imidazo[4,5-b]pyridin-5-yl]pyridine-2,6-diamine] | 0.081 | 0.061 | – |
| CCCCn1c(C)nc2ccc(-c3cc(N)nc(NC(=O)COc4ccccc4)c3)nc21 [Example 230, N-[6-amino-4-(3-butyl-2-methyl-3H-imidazo[4,5-b]pyridin-5-yl)pyridin-2-yl]-2-phenoxyacetamide] | 0.928 | 0.221 | – |
| CCCCn1c(C)nc2ccc(-c3cc(N)nc(NC(=O)c4ccccc4Cl)c3)nc21 [Example 233, N-[6-amino-4-(3-butyl-2-methyl-3H-imidazo[4,5-b]pyridin-5-yl)pyridin-2-yl]-2-chlorobenzamide] | 0.303 | 0.224 | – |
| Cc1nc2ccc(-c3cc(N)nc(F)c3)nc2n1C1CC(F)(F)C1 [Example 240, 4-[3-(3,3-difluorocyclobutyl)-2-methyl-3H-imidazo[4,5-b]pyridin-5-yl]-6-fluoropyridin-2-amine] | 0.016 | – | 0.153 |

Now from value to compound:

| IC50 [1] [µM] | IC50 (DYRK1A [2]) [µM] | IC50 (DYRK1A [3]) [µM] | SMILES |
| --- | --- | --- | --- |
| 0.128 | 0.061 | – | Cc1nc2ccc(-c3cc(N)nc(N)c3)nc2n1Cc1ccccc1 [Example 8, 4-(3-benzyl-2-methyl-3H-imidazo[4,5-b]pyridin-5-yl)pyridine-2,6-diamine] |
| 0.027 | 0.052 | – | Cc1nc2ccc(-c3cc(N)nc(N)c3)nc2n1CC(O)CO (stereo not shown) [Example 37, 3-[5-(2,6-diaminopyridin-4-yl)-2-methyl-3H-imidazo[4,5-b]pyridin-3-yl]propane-1,2-diol] |
| 0.045 | 0.245 | – | COc1cc(Cl)ccc1Cn1c(C)nc2ccc(-c3cc(N)nc(N)c3)nc21 [Example 39, 4-[3-(4-chloro-2-methoxybenzyl)-2-methyl-3H-imidazo[4,5-b]pyridin-5-yl]pyridine-2,6-diamine] |
| 0.187 | 0.154 | – | Cc1nc2ccc(-c3cc(N)nc(N)c3)nc2n1Cc1ccc(C#N)cc1 [Example 40, 4-{[5-(2,6-diaminopyridin-4-yl)-2-methyl-3H-imidazo[4,5-b]pyridin-3-yl]methyl}benzonitrile] |
| 0.109 | 0.116 | – | Cc1nc2ccc(-c3cc(N)nc(N)c3)nc2n1Cc1ccc(OC(F)F)cc1 [Example 43, 4-{3-[4-(difluoromethoxy)benzyl]-2-methyl-3H-imidazo[4,5-b]pyridin-5-yl}pyridine-2,6-diamine] |
| 0.055 | 0.177 | – | Cc1nn(C)c(C)c1Cn1c(C)nc2ccc(-c3cc(N)nc(N)c3)nc21 [Example 45, 4-{2-methyl-3-[(3,5-trimethyl-1H-pyrazol-4-yl)methyl]-3H-imidazo[4,5-b]pyridin-5-yl}pyridine-2,6-diamine] |
| 0.035 | 0.056 | – | Cc1nc2ccc(-c3cc(N)nc(N)c3)nc2n1Cc1cc(F)ccc1F [Example 46, 4-[3-(2,5-difluorobenzyl)-2-methyl-3H-imidazo[4,5-b]pyridin-5-yl]pyridine-2,6-diamine] |
| 0.056 | 0.116 | – | Cc1nc2ccc(-c3cc(N)nc(N)c3)nc2n1Cc1cccc(Cl)c1 [Example 48, 4-[3-(3-chlorobenzyl)-2-methyl-3H-imidazo[4,5-b]pyridin-5-yl]pyridine-2,6-diamine] |
| 0.51 | 0.149 | – | Cc1nc2ccc(-c3cc(N)nc(N)c3)nc2n1C(C)(C)c1ccccc1 [Example 60, 4-[2-methyl-3-(2-phenylpropan-2-yl)-3H-imidazo[4,5-b]pyridin-5-yl]pyridine-2,6-diamine] |
| 0.781 | 0.166 | – | Cc1nc2ccc(-c3cc(N)nc(N)c3)nc2n1C1CCCc2ccccc21 (stereo not shown) [Example 62, 4-[2-methyl-3-(1,2,3,4-tetrahydronaphthalen-1-yl)-3H-imidazo[4,5-b]pyridin-5-yl]pyridine-2,6-diamine] |
| 0.903 | 0.104 | – | CCC(c1ccccc1)n1c(C)nc2ccc(-c3cc(N)nc(N)c3)nc21 (stereo not shown) [Example 67, 4-[2-methyl-3-(1-phenylpropyl)-3H-imidazo[4,5-b]pyridin-5-yl]pyridine-2,6-diamine] |
| 0.007 | 0.002 | – | COc1ccccc1CCCn1c(C)nc2ccc(-c3cc(N)nc(N)c3)nc21 [Example 69, 4-{3-[3-(2-methoxyphenyl)propyl]-2-methyl-3H-imidazo[4,5-b]pyridin-5-yl}pyridine-2,6-diamine] |
| 0.012 | – | 0.141 | Cc1nc2ccc(-c3cc(N)nc(N)c3)nc2n1CCOc1cccc(N)n1 [Example 196, 4-(3-{2-[(6-aminopyridin-2-yl)oxy]ethyl}-2-methyl-3H-imidazo[4,5-b]pyridin-5-yl)pyridine-2,6-diamine] |
| 0.007 | – | 0.054 | Cc1nc2ccc(-c3cc(N)nc(N)c3)nc2n1CCOc1cccc(C#N)n1 [Example 197, 6-{2-[5-(2,6-diaminopyridin-4-yl)-2-methyl-3H-imidazo[4,5-b]pyridin-3-yl]ethoxy}pyridine-2-carbonitrile] |
| 0.016 | – | 0.155 | Cc1ccc(OCCn2c(C)nc3ccc(-c4cc(N)nc(N)c4)nc32)cc1 [Example 208, 4-{2-methyl-3-[2-(4-methylphenoxy)ethyl]-3H-imidazo[4,5-b]pyridin-5-yl}pyridine-2,6-diamine] |
